Results reported in patent US20020128256A1, “Methods for the treatment or prevention of inflammatory diseases characterized by abnormal cell proliferation” (priority 1997, published 2002).
Where two headings read alike, the source gives them in different places. Blank lines part the entries; values can stand above or below the compound they belong to.

Experiments:
[1] = tested on: NIH 3T3 mouse fibroblast cells; experiment: Mitogenic Assay (mitogen-induced cell proliferation); type: cell-based
[2] = target: T1, Gardos channel of erythrocytes (Homo sapiens, UniProt O15554); experiment: Gardos Channel Assay; type: cell-based; conditions: for inhibition at 10 µM: read-out: Gardos Channel Assay Inhibition (%)
T1 construct: endogenous in cells; host or cells: erythrocytes
T1 sequence (O15554 whole entry): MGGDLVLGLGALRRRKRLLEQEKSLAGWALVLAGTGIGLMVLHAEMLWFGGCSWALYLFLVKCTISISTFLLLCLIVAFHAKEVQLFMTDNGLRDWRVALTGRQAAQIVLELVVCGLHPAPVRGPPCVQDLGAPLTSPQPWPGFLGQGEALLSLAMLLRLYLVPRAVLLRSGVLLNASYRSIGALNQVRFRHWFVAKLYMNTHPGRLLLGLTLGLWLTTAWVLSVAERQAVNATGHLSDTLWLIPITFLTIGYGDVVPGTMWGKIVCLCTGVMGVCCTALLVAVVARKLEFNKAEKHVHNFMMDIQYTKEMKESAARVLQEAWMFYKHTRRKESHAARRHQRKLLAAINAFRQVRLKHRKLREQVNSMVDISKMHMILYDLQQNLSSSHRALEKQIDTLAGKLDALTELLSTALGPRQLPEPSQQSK

Gardos channel = Gardos channel (Homo sapiens, UniProt O15554); parameters: host or cells: sickle erythrocytes (printed for Clotrimazole only); conditions: cited from earlier work
Chain of Gardos channel (O15554 whole entry): as above

CaSki = experiment: SRB antiproliferative assay, CaSki; type: cell-based; conditions: Homo sapiens, Ca-Ski, 120 h, read-out: SRB assay IC50
L929 = experiment: SRB assay, normal cells L929; type: cell-based, mouse; conditions: Mus musculus, L929, 120 h, read-out: SRB assay IC50
HCT-15 = experiment: SRB antiproliferative assay, HCT-15; type: cell-based; conditions: Homo sapiens, HCT-15, 120 h, read-out: SRB assay IC50
SK-MEL-28 = experiment: SRB antiproliferative assay, SK-MEL-28; type: cell-based; conditions: Homo sapiens, SK-MEL-28, 120 h, read-out: SRB assay IC50
HEPG2 = experiment: SRB antiproliferative assay, HEPG2; type: cell-based; conditions: Homo sapiens
MDA-MB-231 = experiment: SRB antiproliferative assay, MDA-MB-231; type: cell-based; conditions: Homo sapiens, 120 h, read-out: SRB assay IC50
HTB174 = experiment: SRB antiproliferative assay, HTB174; type: cell-based; conditions: 120 h, read-out: SRB assay IC50
HT29 = experiment: SRB antiproliferative assay, HT29; type: cell-based; conditions: Homo sapiens
GM = experiment: SRB assay, normal cells GM; type: cell-based, human; conditions: Homo sapiens, 120 h, read-out: SRB assay IC50
ACHN = experiment: SRB antiproliferative assay, ACHN; type: cell-based; conditions: Homo sapiens, ACHN, 120 h, read-out: SRB assay IC50
U118MG = experiment: SRB antiproliferative assay, U118MG; type: cell-based; conditions: Homo sapiens, U-118-MG
A549 = experiment: SRB antiproliferative assay, A549; type: cell-based; conditions: Homo sapiens
MCF7 = experiment: SRB antiproliferative assay, MCF7; type: cell-based; conditions: Homo sapiens
HeLa = experiment: SRB antiproliferative assay, HeLa; type: cell-based; conditions: Homo sapiens, HeLa, 120 h, read-out: SRB assay IC50
DU-145 = experiment: SRB antiproliferative assay, DU-145; type: cell-based; conditions: Homo sapiens, DU-145, 120 h, read-out: SRB assay IC50
HUVEC = experiment: SRB assay, normal cells HUVEC; type: cell-based, human; conditions: Homo sapiens, HUVEC, 120 h, read-out: SRB assay IC50
MMRU = experiment: SRB antiproliferative assay, MMRU; type: cell-based, human; conditions: Homo sapiens
3T3 = experiment: SRB assay, normal cells 3T3; type: cell-based, mouse; conditions: Mus musculus, NIH3T3, 120 h, read-out: SRB assay IC50
[3] = measured at 10 μM compound, NIH 3T3 cells
[4] = erythrocytes, read-out: Gardos Channel Assay IC50
[5] = NIH 3T3 mouse fibroblast cells, mitogen-induced proliferation, read-out: Mitogenic Assay IC50
[6] = Mus musculus, NIH3T3, measured at 10 μM compound, NIH 3T3 cells, read-out: Mitogenic Assay Inhibition (%)
[7] = HepG2, 120 h, read-out: SRB assay IC50
[8] = HT-29, 120 h, read-out: SRB assay IC50
[9] = 120 h, read-out: SRB assay IC50
[10] = A549, 120 h, read-out: SRB assay IC50
[11] = MCF7, 120 h, read-out: SRB assay IC50
[12] = NIH3T3, NIH 3T3 mouse fibroblast cells, mitogen-induced proliferation, read-out: Mitogenic Assay IC50

Compound: N#CC1OC12CC(c1ccccc1)(c1ccccc1)c1ccccc12 (stereo not drawn) [Compound 5, Spiro[3,3-diphenyl-2,3-dihydro(1H)indene-1,3′-2′-cyanooxirane]]
- Mitogenic Assay Inhibition (%) [1, 3]: 29.0%
- Gardos Channel Assay Inhibition (%) ([2]; measured at 10 μM compound): 67.3%

- Gardos Channel Assay Inhibition (%) ([2]; measured at 10 μM compound): 0%
Compound: Clc1ccccc1COC1CC(c2ccccc2)(c2ccccc2)c2ccccc21 (stereo not drawn) [Compound 18, 3,3-Diphenyl-1-indanyl α-(2-chlorotoluyl) ether]
- Mitogenic Assay Inhibition (%) [1, 3]: 73.0%

Compound: Clc1ccc(COC(Cn2ccnc2)c2ccc(Cl)cc2Cl)cc1 (stereo not drawn) [econazole]
- Gardos channel inhibition in vitro (Gardos channel): inhibit the Gardos channel in vitro

Compound: NC(=O)CC1C(=O)c2ccccc2C1(c1ccccc1)c1ccccc1 (stereo not drawn) [Compound 12, 2-Acetamide-3,3-diphenylindanone]
- melting point: 169 to 171 °C
- IC50 [2, 4]: 189 nM
- inhibition at 10 µM ([2]; measured at 10 μM compound): 99.5%

- IC50 [2, 4]: 2900 nM
- Gardos Channel Assay Inhibition (%) ([2]; measured at 10 μM compound): 54.8%
Compound: COC(=O)CC1C(=O)c2ccccc2C1(c1ccccc1)c1ccccc1 (stereo not drawn) [Compound 15, 3,3-Diphenylindanone-2-methyl acetate]
- IC50 [1, 5]: 7500 nM
- Mitogenic Assay Inhibition (%) [1, 3]: 80.0%

Compound: OC1CC(c2ccccc2)(c2ccccc2)c2ccccc21 (stereo not drawn) [Compound 3, 1-Hydroxy-3,3-Diphenylindane]
- melting point: 133 to 135 °C
- IC50 [2, 4]: 819 nM
- inhibition at 10 µM [2]: 100%

Compound: CC(=O)OC1CC(c2ccccc2)(c2ccccc2)c2ccccc21 (stereo not drawn) [Compound 7, 1-Acetoxy-3,3-diphenylindane]
- melting point: 90 °C
- IC50 [2]: 1150 nM
- inhibition at 10 µM ([2]; measured at 10 μM compound): 88%

Compound: Clc1ccc(CCC(Cn2ccnc2)Sc2c(Cl)cccc2Cl)cc1 (stereo not drawn) [butoconazole]
- Gardos channel inhibition in vitro (Gardos channel): inhibit the Gardos channel in vitro

Compound: N#CCC1C(=O)c2ccccc2C1(c1ccccc1)c1ccccc1 (stereo not drawn) [Compound 9, 2-cyanomethyl-3,3-diphenylindanone]
- IC50 [2, 4]: 505 nM
- inhibition at 10 µM [2]: 100%

Compound: NC(=O)CC1C(O)c2ccccc2C1(c1ccccc1)c1ccccc1 (stereo not drawn) [Compound 14, 2-Acetamide-3,3-diphenylindanol]
- inhibition at 10 µM [1, 6]: 3%
- melting point: 218 to 220 °C
- IC50 [2, 4]: 2960 nM
- inhibition at 10 µM ([2]; measured at 10 μM compound): 90.5%

Compound: O=C1CC(c2ccccc2)(c2ccccc2)c2ccccc21 [Compound 2, 3,3-Diphenylindanone]
- IC50 [2, 4]: 1010 nM
- inhibition at 10 µM ([2]; measured at 10 μM compound): 100%

Compound: Clc1ccc(COC(Cn2ccnc2)c2ccc(Cl)cc2Cl)c(Cl)c1 (stereo not drawn) [miconazole]
- Gardos channel inhibition in vitro (Gardos channel): inhibit the Gardos channel in vitro

Compound: COc1cc([C@@H]2c3cc4c(cc3[C@@H](O[C@@H]3O[C@@H]5CO[C@@H](C)O[C@H]5[C@H](O)[C@H]3O)[C@H]3COC(=O)[C@H]23)OCO4)cc(OC)c1O [VP-16, Etoposide (VP-16), reference compound]
- IC50 (CaSki): 1800 nM
- IC50 (L929): < 1250 nM
- IC50 (HCT-15): 1300 nM
- IC50 (SK-MEL-28): < 1250 nM
- IC50 (HEPG2; [7]): < 1250 nM
- IC50 (MDA-MB-231): < 1250 nM
- IC50 (HTB174): < 1250 nM
- IC50 (HT29; [8]): < 1250 nM
- IC50 (HT29; HT-29, read-out: SRB IC50): 20000 nM
- IC50 (GM): 1400 nM
- IC50 (ACHN): < 1250 nM
- IC50 (U118MG; [9]): 2200 nM
- IC50 (A549; [10]): < 1250 nM
- IC50 (A549; A549, read-out: SRB IC50): 2300 nM
- IC50 (MCF7; [11]): < 1250 nM
- IC50 (MCF7; MCF7, read-out: SRB IC50): < 2500 nM
- IC50 (HeLa): < 1250 nM
- IC50 (DU-145): < 1250 nM
- IC50 (HUVEC): < 1250 nM
- IC50 (MMRU; [9]): < 1250 nM
- IC50 (MMRU; read-out: SRB IC50): < 2500 nM

Compound: c1ccc(C2(c3ccccc3)CC(OCc3ccc4ccccc4c3)c3ccccc32)cc1 (stereo not drawn) [Compound 16, 3,3-Diphenyl-1-indanyl 2-naphthylmethyl ether]
- inhibition at 10 µM [1, 6]: 75%
- inhibition at 10 µM ([2]; measured at 10 μM compound): 0%

- Gardos Channel Assay Inhibition (%) ([2]; measured at 10 μM compound): 35.0%
Compound: C=CCOC1c2ccccc2C(c2ccccc2)(c2ccccc2)C1CC=C (stereo not drawn) [Compound 6, 2-(2′-Propenyl)-1-(2′-propenoxy)-3,3-diphenylindane]
- IC50 [1, 5]: 3400 nM
- Mitogenic Assay Inhibition (%) [1, 3]: 90.0%

Compound: N#CCC1C(=O)c2cc(Cl)ccc2C1(c1ccc(Cl)cc1)c1ccc(Cl)cc1 (stereo not drawn) [Compound 10, 6-Chloro-2-cyanomethyl-3,3-di(4′-chlorophenyl)indanone]
- inhibition at 10 µM [1, 6]: 98%
- IC50 [1, 12]: 3300 nM
- inhibition at 10 µM ([2]; measured at 10 μM compound): 49.5%

Compound: O=C1CC(c2ccc(Cl)cc2)(c2ccc(Cl)cc2)c2ccc(Cl)cc21 [Compound 8, 6-Chloro-3,3-di(4-chlorophenyl)indanone]
- IC50 (CaSki): 6800 nM
- IC50 (L929): > 10000 nM
- IC50 ([1]; Mus musculus, NIH3T3, read-out: Mitogenic Assay IC50): 2000 nM
- inhibition at 10 µM ([1]; Mus musculus, NIH3T3, read-out: Mitogenic Assay Inhibition (%)): 97%
- IC50 (HCT-15): > 10000 nM
- IC50 (SK-MEL-28): > 10000 nM
- IC50 (HEPG2; [7]): 6400 nM
- IC50 (HEPG2; HepG2, read-out: SRB IC50): 7800 nM
- IC50 (MDA-MB-231): > 10000 nM
- IC50 (HTB174): > 10000 nM
- IC50 (HT29; [8]): 8300 nM
- IC50 (HT29; HT-29, read-out: SRB IC50): > 10000 nM
- IC50 (3T3): > 10000 nM
- melting point: 134 °C
- IC50 (GM): > 10000 nM
- IC50 (ACHN): > 10000 nM
- IC50 (U118MG; [9]): > 10000 nM
- IC50 (U118MG; read-out: SRB IC50): > 10000 nM
- IC50 (A549; [10]): 8900 nM
- IC50 (A549; A549, read-out: SRB IC50): > 10000 nM
- IC50 (MCF7; [11]): 5500 nM
- IC50 (MCF7; MCF7, read-out: SRB IC50): > 10000 nM
- IC50 (HeLa): > 10000 nM
- IC50 (DU-145): > 10000 nM
- IC50 (HUVEC): > 10000 nM
- IC50 (MMRU; [9]): > 10000 nM
- IC50 (MMRU; read-out: SRB IC50): 3300 nM

- Gardos Channel Assay Inhibition (%) ([2]; measured at 10 μM compound): 0%
Compound: 3,3-Diphenyl-1-indanyl α-(4-methyltoluate) ether [Compound 17]
- Mitogenic Assay Inhibition (%) [1, 3]: 76.0%

Compound: NC1=Nc2ccccc2C1(c1ccccc1)c1ccccc1 [Compound 1]
- inhibition at 10 µM [1, 6]: 97%
- IC50 [1, 12]: 700 nM
- IC50 [2, 4]: 419 nM
- inhibition at 10 µM ([2]; measured at 10 μM compound): 98%

Compound: N#CCC1C(O)c2ccccc2C1(c1ccccc1)c1ccccc1 (stereo not drawn) [Compound 13, 2-Cyanomethyl-3,3-diphenylindanol]
- inhibition at 10 µM [1, 6]: 12%
- melting point: 79 to 85 °C
- IC50 [2, 4]: 1590 nM
- inhibition at 10 µM ([2]; measured at 10 μM compound): 99.5%

- Gardos Channel Assay Inhibition (%) ([2]; measured at 10 μM compound): 0%
Compound: 2-(Ethyl-2′-(1,3-dioxolane))-1-hydroxy-3,3-diphenylindene [Compound 20]
- Mitogenic Assay Inhibition (%) [1, 3]: 81.0%

Compound: O/N=C1\CC(c2ccccc2)(c2ccccc2)c2ccccc21 [Compound 4, 1-N-Oxime-3,3-Diphenylindane]
- melting point: 138 to 141 °C
- IC50 [2, 4]: 1350 nM
- inhibition at 10 µM ([2]; measured at 10 μM compound): 100%

Compound: O=C1c2ccccc2C(c2ccccc2)(c2ccccc2)C1CCCO (stereo not drawn) [Compound 19, 3-(3′,3′-diphenyl-2′-indanyl-1′-one)propanol]
- melting point: 98 °C
- IC50 [2]: 5950 nM
- inhibition at 10 µM [2]: 43.7%
